Legend:
P. falciparum (FCB-1) = experiment: short-term in vitro invasion assay (newly invaded ring stages counted by microscopy); type: cell-based, Plasmodium falciparum
Experimental: Asexual blood stages of P. falciparum (FCB-1) were maintained at 37° C. in RPMI 1640/Albumax medium (Gibco) supplemented with 2 mM L-glutamine as previously described (Blackman, 1994 Methods Cell Biol. 45, 213-220). Cultures were gassed with 7% CO2, 5% O2 and 88% N2 and maintained by routine passage in fresh human erythrocytes. Parasites were synchronised by Percoll and sorbitol treatment (Holder & Freeman, 1982 J. Exp. Med. 156, 1528-1538); schizonts were purified by centrifugation over Percoll and then returned to culture in the presence of fresh erythrocytes. After 4 h, during which time released merozoites invaded erythrocytes, the cells were treated with 5% sorbitol for 10 min to lyse the residual schizonts, before returning the parasites to culture.
Compounds were tested for their ability to inhibit invasion in vitro, using two approaches: a short-term assay in which the number of newly invaded erythrocytes was counted using microscopy, and a growth assay measuring uptake of [^3H] hypoxanthine. In the short term-assay (described previously by Blackman et al, 1990 J. Exp. Med. 172, 379-382), compounds were incubated with purified P. falciparum schizonts at ^˜2% parasitaemia and ^˜2% haematocrit in triplicate cultures. After between 6 and 24 h, blood smears were stained with Giemsa's reagent and examined by microscopy. […]

MSP142 = MSP142 (Plasmodium falciparum, UniProt Q8I0U8); experiment: titration of fluorescent analogues against MSP142; type: binding
Experimental: Analogues 258, 261, 264 and 266 were titrated against (a) PBS buffer only, (b) 0.1 mg/ml bovine serum albumin in PBS or (c) 0.1 mg/ml MSP142 in PBS. Fluorescence observed was compared to naphthalenetrisulphate (non-specific reagent) and suramin.

P. vivax MSP142 [1] = target: T1, P. vivax MSP142 (Plasmodium vivax, UniProt Q02569, A1444G/T1362K/T1451N); experiment: isothermal titration calorimetry; type: binding
T1 sequence (Q02569 1325-1704 T1362K/A1444G/T1451N): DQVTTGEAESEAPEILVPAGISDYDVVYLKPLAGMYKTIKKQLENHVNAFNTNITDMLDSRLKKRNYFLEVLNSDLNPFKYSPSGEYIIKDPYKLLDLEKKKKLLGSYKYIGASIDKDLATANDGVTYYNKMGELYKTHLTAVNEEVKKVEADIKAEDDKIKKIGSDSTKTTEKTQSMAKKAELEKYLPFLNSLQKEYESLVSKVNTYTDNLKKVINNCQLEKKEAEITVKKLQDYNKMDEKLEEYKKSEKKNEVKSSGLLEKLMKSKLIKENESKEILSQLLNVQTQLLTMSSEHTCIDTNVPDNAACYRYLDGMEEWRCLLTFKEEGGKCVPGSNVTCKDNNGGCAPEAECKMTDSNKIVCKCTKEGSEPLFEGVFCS
Excerpt: (§1) The MSP142 protein from P. vivax was cloned into plasmid jmp28, a modified pET-28 vector that encodes an N-terminal peptide MHHHHHHIEGRWIL immediately upstream of the inserted sequence. P. vivax (Belem strain) DNA was used as a template for PCR based cloning. The sequence of the expressed protein (following the vector encoded N-terminal peptide) corresponded to residues Asp 1325 to Ser 1704, Accession number A39401.
The protein was expressed in BL21(DE3)pLysS cells by induction of a culture at an OD600 of 0.6-0.8 with IPTG at a final concentration of 1 mM. The cells were induced for 3 h at 37° C. and then harvested by centrifugation. The cells were lysed using the Bugbuster protein extraction reagent (Novagen), after centrifugation of the cell lysate, the pellet containing the MSP142 was dissolved in 6M Guanidine-HCl, 100 mM Na2HPO4, 10 mM Tris-HCl, pH 8.0. This was applied to a Ni-NTA column, washed with 10 column volumes of the loading buffer, followed by 6 column volumes of 8 M Urea, 100 mM Na2HPO4, 10 mM Tris-HCl, at pH 7.0, and 6 column volumes at pH 6.1. The protein was eluted in 3 column volumes 8 M Urea, 100 mM Na2HPO4, 10 mM Tris-HCl, pH 4.3. […]
In addition to the fluorimetry, isothermal titration calorimetry (ITC) was performed using a Microcal omega VP-ITC (MicroCal Inc., Northampton, Mass.). […] The heat of dilution of suramin into buffer was determined in control experiments. […]

P. vivax MSP142 [2] = experiment: binding of suramin by fluorimetry
Excerpt: as §1
The protein was expressed in BL21(DE3)pLysS cells by induction of a culture at an OD600 of 0.6-0.8 with IPTG at a final concentration of 1 mM. The cells were induced for 3 h at 37° C. and then harvested by centrifugation. […]
The intrinsic fluorescence of suramin was used to determine its capacity to bind to the various MSP1-derived proteins. The fluorescence was measured using a Perkin Elmer LS-3B or a Spex Fluoro Max 2 fluorimeter. Suramin was excited at a wavelength of 315 or 330 nm with 2.5 nm resolution, the emission spectra were measured at wavelengths ranging from 350-450 nm. Suramin and the MSP1 proteins were diluted in 20 mM NaH2PO4, 150 mM NaCl at pH 7.2 and analysed at 10 or 20° C. […] The Kd for the suramin-MSP1 binding was determined from three independent experiments.

Cc1ccc(C(=O)Nc2ccc(S(=O)(=O)O)c3cc(S(=O)(=O)O)cc(S(=O)(=O)O)c23)cc1NC(=O)c1cccc(NC(=O)Nc2cccc(C(=O)Nc3cc(C(=O)Nc4ccc(S(=O)(=O)O)c5cc(S(=O)(=O)O)cc(S(=O)(=O)O)c45)ccc3C)c2)c1 [suramin]
inhibition of merozoite invasion of erythrocytes (microscopy, Giemsa) (P. falciparum (FCB-1)): inhibited merozoite invasion of erythrocytes | inhibition of merozoite release from schizonts (microscopy) (P. falciparum (FCB-1)): did not inhibit merozoite release from schizonts | EC50 (MSP142): ~2000 nM | fluorescence in the presence of MSP142 (MSP142; 0.1 mg/ml MSP142 in PBS, 0.01-200 μM): became fluorescent in the presence of MSP142 specifically | Kd (P. vivax MSP142 [1]): 300 ± 100 nM | AH value (P. vivax MSP142 [1]; ITC, 25° C.): 11 ± 1 kcal/mol | enhancement of intrinsic suramin fluorescence on binding (P. vivax MSP142 [2]): large binding-induced enhancements
